Blank lines part the entries; values can stand above or below the molecule they belong to.
Experiments:
Caspase-3 (Homo sapiens) = target: T1, Caspase-3 (Homo sapiens) (UniProt P42574); test: Induction of autoactivation of procaspase-3 relative to control
T1 sequence (whole entry): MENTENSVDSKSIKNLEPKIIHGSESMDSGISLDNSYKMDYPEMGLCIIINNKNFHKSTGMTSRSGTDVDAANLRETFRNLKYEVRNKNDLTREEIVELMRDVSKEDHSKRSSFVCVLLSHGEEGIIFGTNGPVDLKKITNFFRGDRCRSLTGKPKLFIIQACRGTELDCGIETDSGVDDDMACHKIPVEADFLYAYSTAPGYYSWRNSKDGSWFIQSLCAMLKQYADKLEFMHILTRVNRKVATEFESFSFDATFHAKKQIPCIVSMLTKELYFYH

[1] = (§1) Activation of rat liver AMPK assessed as concentration required to induce 50 % activity
Rattus norvegicus [2] = species on record: Rattus norvegicus; test: as §1
Rattus norvegicus [3] = species on record: Rattus norvegicus; test: Activation of rat liver AMPK alpha subunit assessed as concentration required to induce 50 % activity
Rattus norvegicus [4] = species on record: Rattus norvegicus; test: Activation of rat liver AMPK relative to basal activity level; format: tissue-based

fold change (FC) (Caspase-3 (Homo sapiens)): 3
Structure (SMILES): C=CCc1cccc(/C=N/NC(=O)CN2CCN(Cc3ccccc3)CC2)c1O

Structure (SMILES): Nc1ncnc2c1ncn2[C@@H]1O[C@H](COP(=O)(O)O)[C@@H](O)[C@H]1O [ADENOSINE PHOSPHATE]
AC50 [1]: 56 µM

Activity (Rattus norvegicus [2]): 0.8 µM
Structure (SMILES): N#Cc1c(O)c2c(-c3ccc(-c4ccccc4O)cc3)csc2[nH]c1=O

Activity (Rattus norvegicus [2]): 0.3 µM | Activity (Rattus norvegicus [3]): 8 µM
Structure (SMILES): Cc1cc(-c2ccc(/C=C3\S/C(=N\c4ccc(Cl)c(C(=O)O)c4)NC3=O)o2)c([N+](=O)[O-])cc1C
fold change (FC) (Rattus norvegicus [4]): 1.5

From ChEMBL document CHEMBL1240408, “Turning enzymes ON with small molecules” (Nat Chem Biol, 2010)
